Data published in PMC11864979, “First-in-class ultralong-target-residence-time p38α inhibitors as a mitosis-targeted therapy for colorectal cancer” (Nature Cancer, 2025).
Like-named read-outs stand apart in the source and are kept apart here.

Tests used:
Assay in all cases: selectivity profiling in a panel of 340 wild-type kinases (Reaction Biology Europe)
Format in all cases: binding
340 wild-type kinases [1] = biological target: T1, 340 wild-type kinases (Homo sapiens, UniProt O14920)
T1 construct: purchased Reaction Biology Europe
T1 sequence (O14920 1-756): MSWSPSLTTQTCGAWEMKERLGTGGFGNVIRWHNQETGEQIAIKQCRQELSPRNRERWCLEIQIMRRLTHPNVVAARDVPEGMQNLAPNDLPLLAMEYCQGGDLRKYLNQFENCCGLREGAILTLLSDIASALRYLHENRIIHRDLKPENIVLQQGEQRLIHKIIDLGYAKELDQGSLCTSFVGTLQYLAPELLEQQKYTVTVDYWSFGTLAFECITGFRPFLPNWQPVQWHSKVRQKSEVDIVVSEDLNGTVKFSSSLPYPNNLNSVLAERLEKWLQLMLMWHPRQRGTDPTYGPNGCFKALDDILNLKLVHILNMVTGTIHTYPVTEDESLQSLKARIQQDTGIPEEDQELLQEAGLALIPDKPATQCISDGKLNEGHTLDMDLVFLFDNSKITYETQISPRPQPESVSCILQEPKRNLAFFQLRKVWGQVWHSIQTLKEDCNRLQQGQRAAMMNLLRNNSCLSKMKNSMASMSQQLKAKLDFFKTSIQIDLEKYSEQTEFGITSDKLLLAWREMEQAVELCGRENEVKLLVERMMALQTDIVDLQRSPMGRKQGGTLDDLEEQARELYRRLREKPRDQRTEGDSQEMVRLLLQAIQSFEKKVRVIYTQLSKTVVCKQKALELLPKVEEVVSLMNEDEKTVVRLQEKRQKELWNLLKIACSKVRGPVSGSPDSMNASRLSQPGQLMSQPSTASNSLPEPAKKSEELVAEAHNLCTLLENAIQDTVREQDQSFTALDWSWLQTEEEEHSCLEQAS

340 wild-type kinases [2] = biological target: T2, 340 wild-type kinases (Homo sapiens, UniProt Q00534)
T2 construct: purchased Reaction Biology Europe
T2 sequence (Q00534 whole entry): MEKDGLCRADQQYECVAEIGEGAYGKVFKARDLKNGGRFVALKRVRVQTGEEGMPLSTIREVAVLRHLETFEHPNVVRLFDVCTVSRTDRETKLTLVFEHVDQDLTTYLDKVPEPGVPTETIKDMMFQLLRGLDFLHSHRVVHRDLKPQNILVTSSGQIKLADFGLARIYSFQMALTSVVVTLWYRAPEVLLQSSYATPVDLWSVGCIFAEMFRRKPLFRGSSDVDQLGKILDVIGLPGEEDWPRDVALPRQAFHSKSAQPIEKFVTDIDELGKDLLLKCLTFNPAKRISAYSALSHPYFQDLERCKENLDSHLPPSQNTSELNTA

340 wild-type kinases [3] = biological target: T3, 340 wild-type kinases (Homo sapiens, UniProt Q9NR20)
T3 construct: purchased Reaction Biology Europe
T3 sequence (Q9NR20 1-520): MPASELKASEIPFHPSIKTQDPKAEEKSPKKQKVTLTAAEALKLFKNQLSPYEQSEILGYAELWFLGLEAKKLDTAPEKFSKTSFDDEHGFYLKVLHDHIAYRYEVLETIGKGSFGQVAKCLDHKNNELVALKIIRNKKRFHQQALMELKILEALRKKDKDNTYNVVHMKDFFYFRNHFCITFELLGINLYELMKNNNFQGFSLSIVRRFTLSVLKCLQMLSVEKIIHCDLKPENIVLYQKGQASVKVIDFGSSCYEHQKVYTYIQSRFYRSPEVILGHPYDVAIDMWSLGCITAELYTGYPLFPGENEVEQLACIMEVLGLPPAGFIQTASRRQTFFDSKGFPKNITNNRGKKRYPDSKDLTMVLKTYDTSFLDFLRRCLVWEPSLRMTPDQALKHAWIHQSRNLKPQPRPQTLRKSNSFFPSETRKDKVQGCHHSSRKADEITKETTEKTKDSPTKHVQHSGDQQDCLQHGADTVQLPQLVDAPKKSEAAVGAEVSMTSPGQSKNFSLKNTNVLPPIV

340 wild-type kinases [4] = biological target: T4, 340 wild-type kinases (Homo sapiens, UniProt Q8NG66)
T4 construct: purchased Reaction Biology Europe
T4 sequence (Q8NG66 1-645): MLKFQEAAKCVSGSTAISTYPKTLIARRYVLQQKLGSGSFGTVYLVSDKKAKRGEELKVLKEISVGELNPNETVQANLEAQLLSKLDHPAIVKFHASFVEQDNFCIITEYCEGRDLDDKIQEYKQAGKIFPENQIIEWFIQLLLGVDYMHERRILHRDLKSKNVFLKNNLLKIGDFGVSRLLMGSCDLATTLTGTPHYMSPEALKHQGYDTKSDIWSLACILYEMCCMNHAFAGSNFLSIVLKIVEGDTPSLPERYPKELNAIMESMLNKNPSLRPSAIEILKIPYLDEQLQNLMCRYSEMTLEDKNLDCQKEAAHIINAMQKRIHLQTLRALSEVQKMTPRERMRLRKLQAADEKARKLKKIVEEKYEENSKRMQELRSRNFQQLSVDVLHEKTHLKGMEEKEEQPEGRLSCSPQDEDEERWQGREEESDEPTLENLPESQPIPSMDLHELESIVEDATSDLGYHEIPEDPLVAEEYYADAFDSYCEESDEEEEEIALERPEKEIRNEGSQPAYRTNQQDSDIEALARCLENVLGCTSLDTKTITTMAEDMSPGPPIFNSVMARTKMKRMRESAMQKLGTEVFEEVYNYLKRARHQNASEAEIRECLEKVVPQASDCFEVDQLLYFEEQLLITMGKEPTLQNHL

340 wild-type kinases [5] = biological target: T5, 340 wild-type kinases (Homo sapiens, UniProt Q9H0K1)
T5 construct: purchased Reaction Biology Europe
T5 sequence (Q9H0K1 whole entry): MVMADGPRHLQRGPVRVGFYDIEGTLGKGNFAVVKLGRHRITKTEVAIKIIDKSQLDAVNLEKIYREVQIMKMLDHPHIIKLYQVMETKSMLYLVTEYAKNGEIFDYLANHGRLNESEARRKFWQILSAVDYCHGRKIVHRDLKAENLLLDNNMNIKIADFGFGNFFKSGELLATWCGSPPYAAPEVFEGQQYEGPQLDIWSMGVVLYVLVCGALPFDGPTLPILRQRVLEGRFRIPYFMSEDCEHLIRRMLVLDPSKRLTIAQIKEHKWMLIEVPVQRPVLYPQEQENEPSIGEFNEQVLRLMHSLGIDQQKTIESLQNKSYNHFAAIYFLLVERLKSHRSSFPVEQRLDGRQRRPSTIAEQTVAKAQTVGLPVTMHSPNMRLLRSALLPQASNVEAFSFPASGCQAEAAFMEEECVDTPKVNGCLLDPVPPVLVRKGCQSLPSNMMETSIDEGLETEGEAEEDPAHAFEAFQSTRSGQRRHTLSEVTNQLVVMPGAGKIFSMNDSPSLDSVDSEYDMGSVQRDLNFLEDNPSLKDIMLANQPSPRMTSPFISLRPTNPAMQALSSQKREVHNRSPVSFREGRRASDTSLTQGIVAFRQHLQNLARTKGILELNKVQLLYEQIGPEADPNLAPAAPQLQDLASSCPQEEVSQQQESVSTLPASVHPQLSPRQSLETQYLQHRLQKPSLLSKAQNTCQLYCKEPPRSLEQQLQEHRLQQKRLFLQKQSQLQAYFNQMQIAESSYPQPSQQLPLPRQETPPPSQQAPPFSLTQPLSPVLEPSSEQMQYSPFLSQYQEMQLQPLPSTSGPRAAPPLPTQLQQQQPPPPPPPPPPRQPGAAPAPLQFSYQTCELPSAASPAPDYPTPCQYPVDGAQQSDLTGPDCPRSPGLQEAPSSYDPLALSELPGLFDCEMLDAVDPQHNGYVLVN

[6] = read-out: DYRK4 residual activity

Structure (SMILES): CNC(=O)c1ccc2c(c1)C(=O)c1ccc(Nc3ccc(F)c(NC(=O)C4CC4)c3)cc1CC2 [Compound 2015]
- remaining activity at 0.2 µM (340 wild-type kinases [1]; 0.2 µM 2015, read-out: IKKbeta residual activity): 108%
- remaining activity at 1 µM (340 wild-type kinases [1]; 1 µM 2015, read-out: IKKbeta residual activity): 99%
- remaining activity at 0.2 µM (340 wild-type kinases [1]; IKKbeta, 0.2 µM, read-out: residual activity): 108%
- remaining activity at 1 µM (340 wild-type kinases [1]; IKKbeta, 1 µM, read-out: residual activity): 99%
- remaining activity at 0.2 µM (340 wild-type kinases [2]; 0.2 µM 2015, read-out: CDK6/CycD1 residual activity): 97.6%
- remaining activity at 0.2 µM (340 wild-type kinases [2]; 0.2 µM 2015, read-out: CDK6/CycD2 residual activity): 88.8%
- remaining activity at 0.2 µM (340 wild-type kinases [2]; 0.2 µM 2015, read-out: CDK6/CycD3 residual activity): 93.3%
- remaining activity at 1 µM (340 wild-type kinases [2]; 1 µM 2015, read-out: CDK6/CycD1 residual activity): 93.4%
- remaining activity at 1 µM (340 wild-type kinases [2]; 1 µM 2015, read-out: CDK6/CycD2 residual activity): 91.1%
- remaining activity at 1 µM (340 wild-type kinases [2]; 1 µM 2015, read-out: CDK6/CycD3 residual activity): 86.4%
- remaining activity at 0.2 µM (340 wild-type kinases [2]; CDK6/CycD1, 0.2 µM, read-out: residual activity): 97.6%
- remaining activity at 1 µM (340 wild-type kinases [2]; CDK6/CycD1, 1 µM, read-out: residual activity): 93.4%
- remaining activity at 0.2 µM (340 wild-type kinases [2]; CDK6/CycD2, 0.2 µM, read-out: residual activity): 88.8%
- remaining activity at 1 µM (340 wild-type kinases [2]; CDK6/CycD2, 1 µM, read-out: residual activity): 91.1%
- remaining activity at 0.2 µM (340 wild-type kinases [2]; CDK6/CycD3, 0.2 µM, read-out: residual activity): 93.3%
- remaining activity at 1 µM (340 wild-type kinases [2]; CDK6/CycD3, 1 µM, read-out: residual activity): 86.4%
- remaining activity at 0.2 µM (340 wild-type kinases [3]; [6]): 108%
- remaining activity at 1 µM (340 wild-type kinases [3]; [6]): 97.1%
- remaining activity at 0.2 µM (340 wild-type kinases [3]; read-out: residual activity): 108%
- remaining activity at 1 µM (340 wild-type kinases [3]; read-out: residual activity): 97.1%
- remaining activity at 1 µM (340 wild-type kinases [4]; 1 µM 2015, read-out: NEK11 residual activity): 95.8%
- remaining activity at 0.2 µM (340 wild-type kinases [4]; NEK11, 0.2 µM, read-out: residual activity): 91.3%
- remaining activity at 1 µM (340 wild-type kinases [4]; NEK11, 1 µM, read-out: residual activity): 95.8%
- remaining activity at 0.2 µM (340 wild-type kinases [5]; 0.2 µM 2015, read-out: SIK2 residual activity): 101%
- remaining activity at 1 µM (340 wild-type kinases [5]; 1 µM 2015, read-out: SIK2 residual activity): 98.1%
- remaining activity at 0.2 µM (340 wild-type kinases [5]; SIK2, 0.2 µM, read-out: residual activity): 101%
- remaining activity at 1 µM (340 wild-type kinases [5]; SIK2, 1 µM, read-out: residual activity): 98.1%
